The values that follow come from US8471035B1, “Two-photon absorbing arylamine-endcapped and dialkylfluorene-bridged benzobisthiazole compounds with high oleophilicity” (The United States of America as represented by the …, priority 2011, dated 2013).

The nature of data set [1]: Solubility in toluene at room temperature. The class given is physicochemical. From the text:
In addition, these chromophores are found to be even more soluble in aromatic hydrocarbon solvents as indicated by the higher solubilities of AF388-118 (≧29 wt %) and AF388-312 (≧67 wt %) in toluene.

The nature of data set [2]: Solubility in hexane at room temperature (AF-388 series). As to conditions: for solubility in hexane, % wt/vol. / solubility in hexane, % wt/wt: 24° C.; for amount that remained completely dissolved in hexane for months: ambient conditions. Type of data set: physicochemical.

Regarding `CC(C)CCCC(C)CCCC(C)CCC1(CCC(C)CCCC(C)CCCC(C)C)c2cc(-c3nc4cc5sc(-c6ccc7c(c6)C(CCC(C)CCCC(C)CCCC(C)C)(CCC(C)CCCC(C)CCCC(C)C)c6cc(N(c8ccccc8)c8ccccc8)ccc6-7)nc5cc4s3)ccc2-c2ccc(N(c3ccccc3)c3ccccc3)cc21` (stereo not shown) [AF-388-312, 2,6-Bis[7-(diphenylimino)-9,9-bis(3,7,1′-trimethyldodecylfluoren-2-yl)]-benzobisthiazole], in data set [1], the “concentration of toluene solution that remained homogenous” value was 0.34 M and the solubility in toluene is given as at least 67 wt %. In data set [2], the “solubility in hexane, % wt/vol.” value is 20.2 % wt/vol; the “solubility in hexane, % wt/wt” value was 30.4 % wt/wt; the “amount that remained completely dissolved in hexane for months” value is on record as at least 30 wt %.

`CC(C)CCCC(C)CCCC(C)CCCC(C)CCC1(CCC(C)CCCC(C)CCCC(C)CCCC(C)C)c2cc(-c3nc4cc5sc(-c6ccc7c(c6)C(CCC(C)CCCC(C)CCCC(C)CCCC(C)C)(CCC(C)CCCC(C)CCCC(C)CCCC(C)C)c6cc(N(c8ccccc8)c8ccccc8)ccc6-7)nc5cc4s3)ccc2-c2ccc(N(c3ccccc3)c3ccccc3)cc21` (stereo not shown) [AF-388-416, 2,6-Bis[7-(diphenylimino)-9,9-bis(3,7,11,15-tetramethylhexadecyl)fluoren-2-yl]-benzobisthiazole]: in data set [2], the “solubility in hexane, % wt/vol.” value is reported as 36.3 % wt/vol; the “solubility in hexane, % wt/wt” value amounted to 51.3 % wt/wt; the “amount that remained completely dissolved in hexane for months” value was at least 51 wt %.

Consider `CC(C)CCCC(C)CCC1(CCC(C)CCCC(C)C)c2cc(-c3nc4cc5sc(-c6ccc7c(c6)C(CCC(C)CCCC(C)C)(CCC(C)CCCC(C)C)c6cc(N(c8ccccc8)c8ccccc8)ccc6-7)nc5cc4s3)ccc2-c2ccc(N(c3ccccc3)c3ccccc3)cc21` (stereo not shown) [AF-388-118], for which, in data set [1], the “concentration of toluene solution that remained homogenous” value is 0.24 M and the solubility in toluene is listed as at least 29 wt %. Moreover, in data set [1] (72 hours), the “concentration of toluene solution that solidified at room temperature after 72 hours” value turned out to be 0.34 M. In data set [2], the “solubility in hexane, % wt/vol.” value came out at 0.41 % wt/vol and the “solubility in hexane, % wt/wt” value is reported as 0.61 % wt/wt.
